These are literature values, as cited in patent US20250325558A1, “MODULATION OF BACE1 AS A THERAPY FOR SPINOCEREBELLAR ATAXIA” (The General Hospital Corporation, priority 2022, published 2025).

Structures are written as SMILES.

The conditions of the data set: preclinical and clinical studies.

Consider `CN1C(=N)N[C@](C)(c2cc(NC(=O)c3ccc(F)cn3)ccc2F)CS1(=O)=O` [MK-8931, verubecestat], for which the “serious adverse side effects such as liver toxicity” value is on record as “did not produce any serious adverse side effects such as liver toxicity”.
